The source of these data is ChEMBL document CHEMBL3046688, “Antitumor and Anti-Pneumocystis Carinii Activities of Novel Bisbenzamidines” (Med Chem Res, 2005).

A short description of data set [1]: Binding affinity to Poly (dA-dT) DNA at 1:5 compound to DNA base pair ratio.
Data set [2] relates to MCF7. Briefly: Cytotoxicity against Homo sapiens (human) MCF7 cells at 100 uM after 48 hr by SRB assay relative to control. The class given is cell-based. As to conditions: mcf7, 48 h. For orientation: In SRB staining, fixed cells bind dye roughly in proportion to their protein.
The test system of data set [3] is NCI-H460. Kind of data set: Cytotoxicity against Homo sapiens (human) NCI-H460 cells at 100 uM after 48 hr by SRB assay relative to control. The class given is cell-based. As to conditions: nci-h460, 48 h.
In data set [4] the test system is DNA. Kind of data set: Binding affinity to Bos taurus (calf) thymus DNA at 1:5 compound to DNA base pair ratio. The class given is nucleic-acid assay.
Data set [5] has as its system Pneumocystis carinii. Briefly: Antimicrobial activity against Pneumocystis carinii assessed as ATP level detection by bioluminescence assay. Type of data set: functional, organism-based.
Data set [6] concerns SF-268. Kind of data set: Cytotoxicity against Homo sapiens (human) SF268 cells at 100 uM after 48 hr by SRB assay relative to control. The class given is cell-based. As to conditions: sf-268, 48 h.
Data set [7] can be described thus: Selectivity index, ratio of GI50 for human tumor cells to IC50 for Pneumocystis carini.
Data set [8] deals with Pneumocystis carinii. Briefly: Ratio of pentamidine IC50 to compound IC50 for Pneumocystis carinii assessed as ATP level detection by bioluminescence assay. Type of data set: functional.
A short description of data set [9]: Growth inhibition of Homo sapiens (human) ovarian cancer cells after 48 hr by SRB assay. The class given is cell-based. The note with it: cancer cell lines.
Data set [10] deals with A498. Kind of data set: Growth inhibition of Homo sapiens (human) A498 cells after 48 hr by SRB assay. The class given is cell-based. As to conditions: a498, 48 h.
The test system of data set [11] is SR. Kind of data set: Growth inhibition of Homo sapiens (human) SR cells after 48 hr by SRB assay. Type of data set: cell-based.
Data set [12] has as its system Malme-3M. Kind of data set: Growth inhibition of Homo sapiens (human) MALME-3M cells after 48 hr by SRB assay. The class given is cell-based.
The test system of data set [13] is SN12C. Briefly: Growth inhibition of Homo sapiens (human) SN12C cells after 48 hr by SRB assay. The class given is cell-based.
The test system of data set [14] is CAKI-1. Briefly: Growth inhibition of Homo sapiens (human) Caki1 cells after 48 hr by SRB assay. The class given is cell-based. As to conditions: caki-1, 48 h.

As for `N=C(NC1CC1)c1ccc(N2CCCN(c3ccc(C(=N)NC4CC4)cc3)CC2)cc1`, the ΔTm in data set [1] was found to be 23.6 °C; in data set [4], 15.3 °C. The Activity stood at 87% in data set [2], 71% in [3] and 104% in data set [6]. The IC50 in data set [5] turned out to be 1400 nM. For the same molecule, in data set [7], the “Selectivity Index” value is reported as over 71.
Take `N=C(N)c1ccc(NC(=O)CCCCC(=O)Nc2ccc(C(=N)N)cc2)cc1`: in data set [8], the “Ratio IC50” value is on record as 167. For the same molecule, the ΔTm was found to be 14.4 °C in data set [1] and 8.7 °C in data set [4]. Also, the Activity in [2] was 34%; in [3], 75%; in data set [6], 52%. For the same molecule, in [7], the “Selectivity Index” value is given as over 50000.
On to `N#Cc1ccc(N2CCN(c3ccc(C#N)cc3)CC2)cc1`, for which the ΔTm was -0.2 °C in data set [1] and 0 °C in data set [4]. Also, the Activity in [2] was found to be 102%; in [3], 106%; in data set [6], 105%. Besides, the concentration for half-maximal inhibition (IC50) in [5] is over 125000 nM.
`N=C(N)c1ccc(OCc2cccc(COc3ccc(C(=N)N)cc3)c2)cc1`: the ΔTm in [1] was determined as 23.9 °C; in data set [4], 14 °C. Also, the Activity in data set [2] was 0%; in data set [9], “Non-toxic”; in [3], 0%; in data set [6], 0%. The half-inhibitory concentration (IC50) in [5] came out at 2600 nM. For the same molecule, the “Selectivity Index” value in data set [7] was 3.
Take `N=C(NC1CC1)c1ccc(N2CCN(c3ccc(C(=N)NC4CC4)cc3)CC2)cc1`: the shift in melting temperature (ΔTm) was 23.9 °C in data set [1] and 14.5 °C in data set [4]. The Activity in data set [2] turned out to be 108%; in [3], 74%; in [6], 115%. Also, the half-maximal inhibitory concentration (IC50) in [5] turned out to be 5400 nM. Besides, the “Selectivity Index” value in [7] is recorded as over 19.
As for `CCCCNC(=N)c1ccc(N2CCCN(c3ccc(C(=N)NCCCC)cc3)CC2)cc1`, the pGI50 is 6.8 in data set [10], 6.2 in [11] and 6.4 in data set [12]. For the same molecule, the ΔTm in data set [1] came out at 13.3 °C; in [4], 11.8 °C. The figures for the Activity in [2], in data set [3] and in [6] were 39%, 17% and 101%, respectively. The IC50 in [5] stood at 357 nM. In addition, in data set [7], the “Selectivity Index” value is recorded as 36.
Take `c1cc(N2CCCN(c3ccc(C4=NCCCN4)cc3)CC2)ccc1C1=NCCCN1`: the Activity result in [10] was “Toxic”; in data set [13], “Toxic”; in data set [2] it was 42%; in data set [3], 28%; in data set [6], 55%. For the same molecule, the ΔTm in [1] came out at 21.3 °C; in data set [4] it was 15.5 °C. The IC50 in data set [5] turned out to be 4500 nM. Moreover, the “Selectivity Index” value in data set [7] is reported as 18.
For `N#Cc1ccc(N2CCCN(c3ccc(C#N)cc3)CC2)cc1`, the Activity in data set [2] is 70%; in data set [3], 92%; in data set [6] it was 101%.
With `N=C(N)c1ccc(OCCCCCOc2ccc(C(=N)N)cc2)cc1` [PENTAMIDINE], the results for the ΔTm in [1] and in data set [4] were 20.6 °C and 11.6 °C, respectively. For the same molecule, the “Selectivity Index” value in data set [7] was determined as 20.
Regarding `N=C(N)c1ccc(NC(=O)CCCC(=O)Nc2ccc(C(=N)N)cc2)cc1`, in data set [8], the “Ratio IC50” value was 167. For the same molecule, the ΔTm stood at 11.4 °C in [1] and 5.6 °C in data set [4]. In addition, the Activity in [2] amounted to 122%; in [3] it was 105%; in data set [6], 121%. Moreover, in data set [7], the “Selectivity Index” value was over 33333.
Turning to `N=C(N)c1ccc(N2CCCN(c3ccc(C(=N)N)cc3)CC2)cc1`, the pGI50 in data set [10], in [13] and in [14] was 5.1 each time. Also, the figures for the ΔTm in data set [1] and in data set [4] were 23.1 °C and 15 °C, respectively. In addition, the Activity in data set [2] is 87%; in [3] it was 44%; in data set [6] it was 94%. Besides, the IC50 in data set [5] turned out to be 2000 nM. Also, in [7], the “Selectivity Index” value was 32.
`N=C(N)c1ccc(OC(=O)c2ccc(C(=O)Oc3ccc(C(=N)N)cc3)cc2)cc1` [BIS(4-CARBAMIMIDOYLPHENYL)TEREPHTHALATE]: the ΔTm in [1] turned out to be 10.4 °C; in data set [4], 9.9 °C. Moreover, the Activity in data set [2] was 79%; in data set [3], 96%; in data set [6], 94%. Also, the “Selectivity Index” value in data set [7] is given as over 8.
In the case of `N=C(N)c1ccc(COc2ccccc2OCc2ccc(C(=N)N)cc2)cc1`, the pGI50 in data set [10], in data set [13] and in data set [14] was 5.1 each time. The ΔTm in data set [1] is -0.1 °C; in data set [4], 0.1 °C. Moreover, the figures for the Activity in data set [2], in [3] and in data set [6] were 42%, 5% and 27%, respectively. In addition, the IC50 in [5] stood at 1700 nM. Also, the “Selectivity Index” value in [7] worked out at 24.
As to `c1cc(N2CCN(c3ccc(C4=NCCCN4)cc3)CC2)ccc1C1=NCCCN1`, the Activity entry in [10] was “Toxic”; in data set [13], “Toxic”; in data set [2], 77%; in data set [3] it was 18%; in [6], 93%. Also, the ΔTm stood at 17.9 °C in data set [1] and 12.2 °C in [4]. In data set [5], the IC50 came out at 3000 nM. In addition, the “Selectivity Index” value in data set [7] is recorded as over 33.

In general, ΔTm refers to the shift of the melting midpoint relative to a reference. Broadly, the IC50 is the concentration that inhibits the measured activity by half. A word on the pGI50: it is −log10 of the GI50, conventionally taken in molar units.
